The values that follow come from PubChem BioAssay (NCI).

Among the test systems are ACHN renal; HT29 colon; MOLT-4 leukemia; NCI-H226 lung; RPMI-8226 leukemia; SK-OV-3 ovarian; SN12C renal; SNB-19 CNS; SW-620 colon; UACC-257 melanoma.
Common to all, as to assay: NCI tumour cell line growth inhibition, 48 h

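Exposure lasted 48 hours, with cells grown in 96-well plates and compounds tested at five concentrations. GI50 = concentration required for 50% inhibition of growth. TGI is the concentration that stops growth completely.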

Take `CCCCSCCC(N)P(=O)(O)O` (stereo not given): the TGI in the assay with ACHN renal, in the assay with HT29 colon, in the assay with MOLT-4 leukemia, in the assay on NCI-H226 lung, with RPMI-8226 leukemia and with SK-OV-3 ovarian was over 100 µM throughout. For the same compound, the TGI in the assay on SN12C renal, in the assay on SNB-19 CNS, in the assay with SW-620 colon and in the assay with UACC-257 melanoma was over 100 µM each time.
As to `O=C1/C(=C/c2ccc([N+](=O)[O-])cc2)Sc2scc(-c3cccc([N+](=O)[O-])c3)[n+]21`, the TGI was 14 µM in the assay on ACHN renal; 9.35 µM in the assay with HT29 colon; over 20.1 µM in the assay with MOLT-4 leukemia; 29.9 µM in the assay on NCI-H226 lung; 11.4 µM with RPMI-8226 leukemia; 30.6 µM in the assay with SK-OV-3 ovarian. The TGI turned out to be 17.3 µM in the assay on SN12C renal, 31.5 µM with SNB-19 CNS, 3.35 µM in the assay with SW-620 colon and 18.4 µM in the assay with UACC-257 melanoma.
In the case of `COc1ccc2c3c([nH]c2c1)[C@H](C=C(C)C)N1C(=O)[C@@H]2CCCN2C(=O)[C@@H]1C3`, the TGI in the assay with ACHN renal was over 100 µM; in the assay on HT29 colon, over 100 µM; with MOLT-4 leukemia, over 100 µM; with NCI-H226 lung, over 100 µM; with RPMI-8226 leukemia, over 100 µM; with SK-OV-3 ovarian, 95.9 µM. The TGI in the assay on SN12C renal, with SNB-19 CNS, with SW-620 colon and with UACC-257 melanoma was over 100 µM each time.
In the case of `CCOC(=O)c1cccc(N=Nc2ncc(/C=C/C(=O)OC)[nH]2)c1`, the TGI is 72 µM with ACHN renal; over 100 µM in the assay on HT29 colon; 28.9 µM with MOLT-4 leukemia; over 100 µM in the assay on NCI-H226 lung; 40.5 µM in the assay on RPMI-8226 leukemia; over 100 µM in the assay with SK-OV-3 ovarian. In addition, the TGI with SN12C renal is 48.5 µM; in the assay on SNB-19 CNS, over 100 µM; with SW-620 colon, over 100 µM; with UACC-257 melanoma it was 46.4 µM.
As to `Cc1ccc(S(=O)(=O)Nc2cc(=O)[nH]c3c2CCC3)cc1`, the TGI with ACHN renal, in the assay on HT29 colon, in the assay with MOLT-4 leukemia, in the assay with NCI-H226 lung, in the assay on RPMI-8226 leukemia and with SK-OV-3 ovarian was over 100 µM in each case. Besides, the TGI with SN12C renal, with SNB-19 CNS, in the assay on SW-620 colon and with UACC-257 melanoma was over 100 µM in each case.
As for `O=C1CNc2cc(N3CCCCC3)ccc2N1`, the TGI is over 100 µM in the assay on ACHN renal; 24.4 µM in the assay with HT29 colon; over 100 µM in the assay with MOLT-4 leukemia; 37.3 µM with NCI-H226 lung; over 100 µM with RPMI-8226 leukemia; over 100 µM in the assay with SK-OV-3 ovarian. The TGI in the assay with SN12C renal, in the assay with SNB-19 CNS, in the assay on SW-620 colon and in the assay with UACC-257 melanoma was over 100 µM each time.
`COc1cc(/C=C2\CC3C4CC[C@H]5C[C@@H](O)CC[C@]5(C)C4CC[C@]3(C)\C2=N\O)cc(OC)c1OC` (stereo not given in full): the TGI in the assay on ACHN renal is 39.8 µM; with HT29 colon, over 100 µM; in the assay with MOLT-4 leukemia, 37.5 µM; in the assay on NCI-H226 lung, 45.1 µM; with RPMI-8226 leukemia, 23.4 µM; with SK-OV-3 ovarian, 72.3 µM. Also, the TGI with SN12C renal was 41.9 µM; in the assay with SNB-19 CNS, over 100 µM; in the assay on SW-620 colon, over 100 µM; in the assay on UACC-257 melanoma, 56.7 µM.
As to `NC(N)=N/N=C/c1c(-c2cccs2)nc2n1CCS2`, the GI50 in the assay with ACHN renal is 20.8 µM; with HT29 colon, 17.2 µM; in the assay on MOLT-4 leukemia it was 13.9 µM; in the assay on NCI-H226 lung, 15.9 µM; in the assay with RPMI-8226 leukemia, 18.6 µM; in the assay on SK-OV-3 ovarian, over 100 µM. The GI50 in the assay on SN12C renal is 12.5 µM; in the assay with SNB-19 CNS, 22 µM; with SW-620 colon, 17.9 µM; in the assay on UACC-257 melanoma, 22.3 µM. Further, the TGI in the assay with ACHN renal was 40.9 µM; in the assay with HT29 colon, 30.9 µM; in the assay on MOLT-4 leukemia, 28.5 µM; in the assay with NCI-H226 lung, 31.8 µM; with RPMI-8226 leukemia, 39.9 µM; in the assay on SK-OV-3 ovarian it was over 100 µM. Besides, the TGI in the assay with SN12C renal is 32.4 µM; with SNB-19 CNS, 57.8 µM; in the assay on SW-620 colon, 41.7 µM; in the assay with UACC-257 melanoma, 44.8 µM.
